Numbers after ± are expanded uncertainties.
How the values were obtained:
[1] = xn = mol fraction of the nth substance listed; conditions: 298.15 K, 101 kPa, Liquid; for viscosity: Capillary tube (Ostwald / Ubbelohde) method
[2] = 298.15 K, 101.33 kPa, Liquid; for viscosity: Capillary tube (Ostwald / Ubbelohde) method

CCCCC [pentane] + Cc1ccccc1
[1]
Conditions | mass density [kg/m3] | viscosity [mPa·s]
x2 = 0.0415 | 630.69 ± 0.55 | 0.2029 ± 0.0026
x2 = 0.2011 | 668.27 ± 0.54 | 0.2231 ± 0.0028
x2 = 0.2799 | 687.21 ± 0.53 | 0.2386 ± 0.0029
x2 = 0.3647 | 707.61 ± 0.53 | 0.2592 ± 0.0031
x2 = 0.4341 | 724.3 ± 0.52 | 0.2786 ± 0.0033
x2 = 0.6011 | 764.45 ± 0.51 | 0.3367 ± 0.0038
x2 = 0.6821 | 783.95 ± 0.5 | 0.3688 ± 0.0041
x2 = 0.7502 | 800.32 ± 0.5 | 0.3999 ± 0.0044
x2 = 0.8213 | 817.43 ± 0.49 | 0.4371 ± 0.0047
x2 = 0.9137 | 840.19 ± 0.49 | 0.4891 ± 0.0051

Cc1ccccc1 [toluene]
[2]
Conditions | mass density [kg/m3] | viscosity [mPa·s]
– | 862.19 ± 0.62 | 0.552 ± 0.006

CCCCC [pentane]
[2]
Conditions | mass density [kg/m3] | viscosity [mPa·s]
– | 621.32 ± 0.99 | 0.219 ± 0.005

C1CCCCC1 [cyclohexane]
[2]
Conditions | mass density [kg/m3] | viscosity [mPa·s]
– | 773.93 ± 0.37 | 0.894 ± 0.007

C1CCCCC1 [cyclohexane] + Cc1ccccc1
[1]
Conditions | mass density [kg/m3] | viscosity [mPa·s]
x2 = 0.0407 | 776.48 ± 0.37 | 0.8158 ± 0.0073
x2 = 0.2018 | 788.44 ± 0.38 | 0.7133 ± 0.0066
x2 = 0.2798 | 794.63 ± 0.39 | 0.6687 ± 0.0063
x2 = 0.3613 | 801.33 ± 0.4 | 0.6305 ± 0.006
x2 = 0.4416 | 808.17 ± 0.41 | 0.6081 ± 0.0058
x2 = 0.6003 | 822.4 ± 0.42 | 0.566 ± 0.0056
x2 = 0.6784 | 829.75 ± 0.44 | 0.5534 ± 0.0055
x2 = 0.7615 | 837.82 ± 0.45 | 0.5429 ± 0.0055
x2 = 0.8396 | 845.63 ± 0.46 | 0.5395 ± 0.0055
x2 = 0.9202 | 853.94 ± 0.47 | 0.5393 ± 0.0055

CCCCC [pentane] + C1CCCCC1
[1]
Conditions | mass density [kg/m3] | viscosity [mPa·s]
x2 = 0.0437 | 627.56 ± 0.49 | 0.2065 ± 0.0025
x2 = 0.2145 | 653.09 ± 0.48 | 0.2555 ± 0.0029
x2 = 0.2955 | 665.44 ± 0.47 | 0.2828 ± 0.0031
x2 = 0.3753 | 677.59 ± 0.47 | 0.3128 ± 0.0034
x2 = 0.4595 | 690.43 ± 0.47 | 0.3503 ± 0.0037
x2 = 0.6125 | 713.75 ± 0.47 | 0.4425 ± 0.0046
x2 = 0.7048 | 727.81 ± 0.48 | 0.5146 ± 0.0052
x2 = 0.7791 | 739.14 ± 0.48 | 0.5847 ± 0.0059
x2 = 0.8514 | 750.15 ± 0.49 | 0.6591 ± 0.0066
x2 = 0.9254 | 761.85 ± 0.49 | 0.7641 ± 0.0076

From the NIST ThermoML archive (doi:10.1021/je0501944)
